Data taken from ChEMBL document CHEMBL3603786, “The 2',4'-dihydroxychalcone could be explored to develop new inhibitors against the glycerol-3-phosphate dehydrogenase from Leishmania species” (Bioorg Med Chem Lett, 2015).

Key:
[1] = Selectivity index, ratio of CC50 for Swiss albino mouse peritoneal macrophages to IC50 for promastigotes of Leishmania amazonensis MPRO/BR/1972/M1841-LV-79; format: functional
Leishmania amazonensis [2] = experiment: Antileishmanial activity against promastigotes of Leishmania amazonensis MPRO/BR/1972/M1841-LV-79 after 72 hrs by MTT assay; format: functional, organism-based; conditions: MPRO/BR/1972/M1841-LV-79, 72 h
[3] = Cytotoxicity against Swiss albino mouse peritoneal macrophages after 24 hrs by MTT assay; format: cell-based, Peritoneal macrophage cell
Leishmania amazonensis [4] = experiment: Ratio of pentamidine IC50 to compound IC50 for Leishmania amazonensis MPRO/BR/1972/M1841-LV-79; format: functional

N=C(N)c1ccc(OCCCCCOc2ccc(C(=N)N)cc2)cc1 [PENTAMIDINE]
Ratio CC50/IC50 [1]: 5.3
IC50 (Leishmania amazonensis [2]): 6.7 µM
CC50 at 24 h [3]: 35.7 µM

O=C(/C=C/c1ccccc1)c1ccc(O)cc1O [2',4'-DIHYDROXYCHALCONE]
Ratio CC50/IC50 [1]: 1041.7
IC50 (Leishmania amazonensis [2]): 0.4 µM
Ratio IC50 (Leishmania amazonensis [4]): 16
CC50 at 24 h [3]: 417 µM
